Measured values published in US6770597B2, “Benzohydrazide derivatives as herbicides and desiccant compositions containing them” (Ishihara Sangyo Kaisha, Ltd., priority 2002, dated 2004).

Legend:
Format in all cases: in vivo
[1] = test system: green foxtail (Setaria viridis, SETVI); assay: Greenhouse herbicide screen, pre-emerge application, phytotoxicity rating; settings: PRE emergent, 14 days after application, rating scale 0-100
From the text: (§1) A standard greenhouse herbicide activity screening system was used to evaluate the herbicidal efficacy and crop safety of these test compounds. Seven broadleaf weed species including redroot pigweed (Amaranthus retrofiexus, AMARE), velvetleaf (Abutilon theophrasti, ABUTH), sicklepod (Cassia obtusifolia, CASOB), ivyleaf morningglory (Ipomoea hederacea, IPOHE), lambsquarters (Chenopodium album, CHEAL), common ragweed (Ambrosia artemisiifolia L., AMBEL), and cocklebur (Xanthium strumarium, XANST) were used as test species. Four grass weed species including green foxtail (Setaria viridis, SETVI), barnyardgrass (Echinochloa crus-galli, ECHCG), johnsongrass (Sorghum halepense, SORHA), and large crabgrass (Digitaria sanguinalis, DIGSA) were also used. In addition, four crop species, field corn (Zea mays L., var. Dekalb 535, CORN), soybean (Glycine max L., var. Pella 86, SOY), upland rice (Oryza sp., var.Cocodrie, RICE) and wheat (Triticum aestivum L.) were included.
(§2) All plants were grown in 10 cm square plastic pots which were filled with a sandy loam soil mix. For pre-emerge tests, seeds were planted one day prior to application of the test compounds. For post-emerge tests, seeds were planted 8-21 days prior to the test to allow emergence and good foliage development prior to application of the test substances. At the time of the post-emerge application, plants of all species were usually at the 2-3 leaf stage of development.
(§3) All test compounds were dissolved in acetone and applied to the test units in a volume of 187 l/ha. Test materials were applied at rates ranging from 15 g ai/ha to 1000 g ai/ha using a track sprayer equipped with a TJ8001E even flow flat fan spray nozzle. Plants were arranged on a shelf so that the top of the canopy (post-emerge) or top of the soil surface (pre-emerge) was 40-45 cm below the nozzle. Pressurized air was used to force the test solution through the nozzle as it was mechanically advanced (via electrically driven chain drive) over the top of all test plants/pots. This application simulates a typical commercial field herbicide application.
(§4) Pre-emergence tests were top watered immediately after treatment to incorporate the test materials, then routinely top-watered for normal growth. Post-emerge test units were always bottom-watered.
(§5) At 14 days after application of the test materials, phytotoxicity ratings were recorded. A rating scale of 0-100 was used as previously described in Research Methods in Weed Science, 2nd edition, B. Truelove, Ed., Southern Weed Science Society, Auburn University, Auburn, Ala., 1977. Briefly, “0” corresponds to no damage and “100” corresponds to complete death of all plants in the test unit. This scale was used both to determine efficacy against weed species and damage to crop species. Herbicide activity data for various compounds of this invention, which are shown by compound No. in Tables 1-12, are shown in Tables 13 and 14.

[2] = test system: large crabgrass (Digitaria sanguinalis, DIGSA); assay: as above; settings: PRE emergent, 14 days after application, rating scale 0-100
From the text: as §1, §2, §3, §4, §5

[3] = test system: barnyardgrass (Echinochloa crus-galli, ECHCG); assay: as above; settings: PRE emergent, 14 days after application, rating scale 0-100
From the text: as §1, §2, §3, §4, §5

[4] = test system: cocklebur (Xanthium strumarium, XANST); assay: as above; settings: PRE emergent, 14 days after application, rating scale 0-100
From the text: as §1, §2, §3, §4, §5

[5] = test system: johnsongrass (Sorghum halepense, SORHA); assay: as above; settings: PRE emergent, 14 days after application, rating scale 0-100
From the text: as §1, §2, §3, §4, §5

[6] = test system: common ragweed (Ambrosia artemisiifolia L., AMBEL); assay: as above; settings: PRE emergent, 14 days after application, rating scale 0-100
From the text: as §1, §2, §3, §4, §5

[7] = test system: redroot pigweed (Amaranthus retrofiexus, AMARE); assay: as above; settings: PRE emergent, 14 days after application, rating scale 0-100
From the text: as §1, §2, §3, §4, §5

[8] = test system: lambsquarters (Chenopodium album, CHEAL); assay: as above; settings: PRE emergent, 14 days after application, rating scale 0-100
From the text: as §1, §2, §3, §4, §5

[9] = test system: velvetleaf (Abutilon theophrasti, ABUTH); assay: as above; settings: PRE emergent, 14 days after application, rating scale 0-100
From the text: as §1, §2, §3, §4, §5

[10] = test system: sicklepod (Cassia obtusifolia, CASOB); assay: as above; settings: PRE emergent, 14 days after application, rating scale 0-100
From the text: as §1, §2, §3, §4, §5

[11] = test system: ivyleaf morningglory (Ipomoea hederacea, IPOHE); assay: as above; settings: PRE emergent, 14 days after application, rating scale 0-100
From the text: as §1, §2, §3, §4, §5

[12] = test system: green foxtail (Setaria viridis, SETVI); assay: Greenhouse herbicide screen, post-emerge application, phytotoxicity rating; settings: POST emergent, 14 days after application, scale 0-100
From the text: as §1, §2, §3, §4, §5

[13] = test system: large crabgrass (Digitaria sanguinalis, DIGSA); assay: as above; settings: POST emergent, 14 days after application, scale 0-100
From the text: as §1, §2, §3, §4, §5

[14] = test system: barnyardgrass (Echinochloa crus-galli, ECHCG); assay: as above; settings: POST emergent, 14 days after application, scale 0-100
From the text: as §1, §2, §3, §4, §5

[15] = test system: cocklebur (Xanthium strumarium, XANST); assay: as above; settings: POST emergent, 14 days after application, scale 0-100
From the text: as §1, §2, §3, §4, §5

[16] = test system: johnsongrass (Sorghum halepense, SORHA); assay: as above; settings: POST emergent, 14 days after application, scale 0-100
From the text: as §1, §2, §3, §4, §5

[17] = test system: common ragweed (Ambrosia artemisiifolia L., AMBEL); assay: as above; settings: POST emergent, 14 days after application, scale 0-100
From the text: as §1, §2, §3, §4, §5

[18] = test system: redroot pigweed (Amaranthus retrofiexus, AMARE); assay: as above; settings: POST emergent, 14 days after application
From the text: as §1, §2, §3, §4, §5

[19] = test system: lambsquarters (Chenopodium album, CHEAL); assay: as above; settings: POST emergent, 14 days after application, scale 0-100
From the text: as §1, §2, §3, §4, §5

[20] = test system: velvetleaf (Abutilon theophrasti, ABUTH); assay: as above; settings: POST emergent, 14 days after application, scale 0-100
From the text: as §1, §2, §3, §4, §5

[21] = test system: sicklepod (Cassia obtusifolia, CASOB); assay: as above; settings: POST emergent, 14 days after application, scale 0-100
From the text: as §1, §2, §3, §4, §5

[22] = test system: ivyleaf morningglory (Ipomoea hederacea, IPOHE); assay: as above; settings: POST emergent, 14 days after application, scale 0-100
From the text: as §1, §2, §3, §4, §5

[23] = 63 g ai/ha, scale 0-100 (0 no damage, 100 complete death)

CC(=O)OC(=NN=C(C)C(C)(C)C)c1cc(-n2c(=O)cc(C(F)(F)F)n(C)c2=O)c(F)cc1Cl [Compound 5-2, 2-chloro-5-(3,6-dihydro-3-methyl-2,6-dioxo-4-(trifluoromethyl)-1(2H)-pyrimidinyl)-4-fluoro-N-(1,2,2-trimethylpropylidene)-benzenecarbohydrazonic Acid, Acetyl Ester]
phytotoxicity rating SETVI ([1]; 63 g ai/ha): 70
phytotoxicity rating DIGSA ([2]; 63 g ai/ha): 60
phytotoxicity rating ECHCG ([3]; 63 g ai/ha): 40
phytotoxicity rating XANST ([4]; 63 g ai/ha): 0
phytotoxicity rating SORHA ([5]; 63 g ai/ha): 70
phytotoxicity rating AMBEL ([6]; 63 g ai/ha): 60
phytotoxicity rating AMARE ([7]; 63 g ai/ha): 100
phytotoxicity rating CHEAL ([8]; 63 g ai/ha): 100
phytotoxicity rating ABUTH ([9]; 63 g ai/ha): 95
phytotoxicity rating CASOB ([10]; 63 g ai/ha): 55
phytotoxicity rating IPOHE ([11]; 63 g ai/ha): 95
phytotoxicity rating SETVI ([12]; 63 g ai/ha): 50
phytotoxicity rating DIGSA ([13]; 63 g ai/ha): 50
phytotoxicity rating ECHCO ([14]; 63 g ai/ha): 95
phytotoxicity rating XANST ([15]; 63 g ai/ha): 99
phytotoxicity rating SORHA ([16]; 63 g ai/ha): 55
phytotoxicity rating AMBEL ([17]; 63 g ai/ha): 90
phytotoxicity rating AMARE [18, 23]: 95
phytotoxicity rating CHEAL ([19]; 63 g ai/ha): 100
phytotoxicity rating ABUTH ([20]; 63 g ai/ha): 100
phytotoxicity rating CASOB ([21]; 63 g ai/ha): 55
phytotoxicity rating IPOHE ([22]; 63 g ai/ha): 100

CC(=NNC(=O)c1cc(-n2c(=O)cc(C(F)(F)F)n(C)c2=O)c(F)cc1Cl)C(C)(C)C [Compound 6-5, 2-chloro-5-(3,6-dihydro-3-methyl-2,6-dioxo-4-(trifluoromethyl)-1(2H)-pyrimidinyl)-4-fluoro-benzoic Acid, 2-(1,2,2-trimethylpropylidene)hydrazide]
phytotoxicity rating SETVI ([1]; 63 g ai/ha): 60
phytotoxicity rating SETVI ([1]; 250 g ai/ha): 85
phytotoxicity rating DIGSA ([2]; 63 g ai/ha): 90
phytotoxicity rating DIGSA ([2]; 250 g ai/ha): 99
phytotoxicity rating ECHCG ([3]; 63 g ai/ha): 55
phytotoxicity rating ECHCG ([3]; 250 g ai/ha): 90
phytotoxicity rating XANST ([4]; 63 g ai/ha): 55
phytotoxicity rating XANST ([4]; 250 g ai/ha): 99
phytotoxicity rating SORHA ([5]; 63 g ai/ha): 85
phytotoxicity rating SORHA ([5]; 250 g ai/ha): 99
phytotoxicity rating AMBEL ([6]; 63 g ai/ha): 70
phytotoxicity rating AMBEL ([6]; 250 g ai/ha): 100
phytotoxicity rating AMARE ([7]; 63 g ai/ha): 99
phytotoxicity rating AMARE ([7]; 250 g ai/ha): 100
phytotoxicity rating CHEAL ([8]; 63 g ai/ha): 99
phytotoxicity rating CHEAL ([8]; 250 g ai/ha): 100
phytotoxicity rating ABUTH ([9]; 63 g ai/ha): 95
phytotoxicity rating ABUTH ([9]; 250 g ai/ha): 100
phytotoxicity rating CASOB ([10]; 63 g ai/ha): 50
phytotoxicity rating CASOB ([10]; 250 g ai/ha): 70
phytotoxicity rating IPOHE ([11]; 63 g ai/ha): 100
phytotoxicity rating IPOHE ([11]; 250 g ai/ha): 100
phytotoxicity rating SETVI ([12]; 63 g ai/ha): 30
phytotoxicity rating SETVI ([12]; 250 g ai/ha): 55
phytotoxicity rating DIGSA ([13]; 63 g ai/ha): 75
phytotoxicity rating DIGSA ([13]; 250 g ai/ha): 80
phytotoxicity rating ECHCO ([14]; 63 g ai/ha): 80
phytotoxicity rating ECHCO ([14]; 250 g ai/ha): 95
phytotoxicity rating XANST ([15]; 63 g ai/ha): 70
phytotoxicity rating XANST ([15]; 250 g ai/ha): 100
phytotoxicity rating SORHA ([16]; 63 g ai/ha): 0
phytotoxicity rating SORHA ([16]; 250 g ai/ha): 90
phytotoxicity rating AMBEL ([17]; 63 g ai/ha): 60
phytotoxicity rating AMBEL ([17]; 250 g ai/ha): 80
phytotoxicity rating AMARE [18, 23]: 70
phytotoxicity rating AMARE ([18]; 250 g ai/ha, scale 0-100): 100
phytotoxicity rating CHEAL ([19]; 63 g ai/ha): 60
phytotoxicity rating CHEAL ([19]; 250 g ai/ha): 95
phytotoxicity rating ABUTH ([20]; 63 g ai/ha): 65
phytotoxicity rating ABUTH ([20]; 250 g ai/ha): 100
phytotoxicity rating CASOB ([21]; 63 g ai/ha): 50
phytotoxicity rating CASOB ([21]; 250 g ai/ha): 65
phytotoxicity rating IPOHE ([22]; 63 g ai/ha): 75
phytotoxicity rating IPOHE ([22]; 250 g ai/ha): 100
